Reference: patent US8076144B2, “Protocol for risk stratification of ischemic events and optimized individualized treatment” (Cora Healthcare, Inc., priority 1999, dated 2011)

Test system: whole blood clot formation
Test: Ecarin-activated TEG hemostasis analysis of recalcified sodium-citrated samples taken before and after in vivo anticoagulation therapy
Parameters: species or system human
Conditions: 14b
From the text: One exemplary protocol utilizes a sample, e.g., sample 13, that is obtained from a subject prior to administration of the anticoagulation therapy. Another sample is obtained at a first time period following administration of an anticoagulation therapy such as a direct thrombin inhibitor therapy like bivalirudin, heparin or warfarin. Each sample may be obtained into sodium citrate.
The sodium-citrated samples are recalcified, and an additional reagent is provided such as a prothrombin activator such as ecarin. The hemostasis analyzer 10 is used to measure the time to initial clot formation, R. FIG. 13 illustrates data for a sample of subjects showing time to initial clot formation R before in vivo administration of the anticoagulation therapy and after in vivo administration of the anticoagulation therapy. FIGS. 14a and 14b illustrate tracings and, respectively, showing a typical set of hemostasis parameter data before in vivo administration of the anticoagulation therapy and after in vivo administration of the anticoagulation therapy. […] Importantly, there exists correlation between the delay in initial clot formation and the dosing of the anticoagulation therapy. […]

## bivalirudin
Samples from subjects before vs after in vivo administration, recalcified citrated blood with ecarin, FIGS. 13, 14a
  delay in onset of clot formation (time to initial clot formation R): direct relationship to bivalirudin dosing
Tracings before and after in vivo administration, FIGS. 14a
  rate of clot formation α, clot strength MA and lysis LY30: within expected norms
